“Also recorded” adds a separate entry of the source.
Legend:
[1] = system: kdm6a morphants; test: Brain cell proliferation (pHH3 immunostaining) in kdm6a morphants; type: in vivo, zebrafish; conditions: 100 nM, 2 dpf, listed as dmDf
Text: Intellectual disability represents a major phenotype in KS, with some studies reporting almost 90% of patients to be affected (see, Wessels, M. W., et al. Clin Dysmorphol 11, 95-102 (2002)). […] Previous studies have shown that defects in proliferation in the developing zebrafish brain can be a proxy for neurodevelopmental and neurocognitive traits, especially in the context of microcephaly (see, Borck, G. et al. Genome Res 25, 609 (2015); Brooks, S. S. et al. Genetics 198, 723-33 (2014); O'Rawe, J. A. et al. Am J Hum Genet 97, 922-32 (2015); Wortmann, S. B. et al. Am J Hum Genet 96, 245-57 (2015)), a phenotype reported commonly in KS (see, Matsumoto, N. & Niikawa, N. Am J Med Genet C Semin Med Genet 117C, 57-65 (2003)).
(§1) For convergence and extension (CE) phenotyping, embryos were scored as described (see, Leitch, C. C. et al. Nat Genet 40, 443-8 (2008)) at the 8-10 somite stage, and images were captured using an AZ100 microscope and NIS Elements software (Nikon). […] The distance between Meckel's (MK) and ceratohyal (CH) cartilages was measured on ventral bright field images with Image J (NIH). […] Fluorescence signal on embryo heads was imaged with the Nikon AZ100 microscope and DS-Qi1MC digital camera using […] Z-stacks to generate extended depth of focus images. Cell numbers were quantified using the ImageJ ICTN plugin (NIH). […]

[2] = system: kmt2d CRISPR mosaic mutants (F0); test: CE defects in kmt2d-CRISPR F0 mutants; type: in vivo, zebrafish; conditions: kmt2d-CRISPR F0, 100 nM; listed as dmDf
Text: Prior and current genetic zebrafish models of KS focused on the newly discovered rap1a/rap1b genes. However, from the perspective of clinical utility, dmDf should be efficacious in kmt2d mutants, since loss of function mutations of the human ortholog account for as much as 75% of KS (see, Ng, S. B. et al. Nat Genet 42, 790-3 (2010); Li, Y. et al. Hum Genet 130, 715-24 (2011); Lu, J., Mo, G., Ling, Y. & Ji, L. Mol Med Rep 14, 3641-5 (2016); Miyake, N. et al. Am J Med Genet A 161a, 2234-43 (2013)). Therefore, experiments supplemented the testing tools by creating a kmt2d CRISPR/Cas9 mutant. A guide RNA targeting exon 4 of kmt2d induced efficient (˜99%) Cas9-mediated genome editing (FIG. 8). […]
as §1

In the case of `CC(C)c1nc(-c2cccc(NS(=O)(=O)c3c(F)cccc3F)c2F)c(-c2ccnc(N)n2)s1` [Compound 8, desmethyl-Dabrafenib], the “total number of proliferating (pHH3+) cells in brain” value [1] is reported as “significantly increases pHH3+ proliferating cells; also recorded: restored the total number of proliferating cells to wild type levels” and the CE defects [2] is reported as “ameliorates the CE defects; also recorded: ameliorated significantly”.
